Data taken from patent publication EP4122466A1 (priority 2021, dated 2023).
“Also recorded” adds a separate entry of the source.

Columns and labels:
[1] = test system: Human Lung Tissue (HTL) cells
SARS-CoV-2 pseudovirus = format: cell-based
VSV.G virus = format: cell-based
VSV*ΔG(Luc)-S virus = experiment: organism not typed; format: cell-based
SARS-CoV-2 = conditions: cited from earlier work

SMILES | cell death [1] | inhibition of virus infection (SARS-CoV-2 pseudovirus) | inhibition of the VSV.G virus (VSV.G virus) | EC50 (VSV*ΔG(Luc)-S virus) [µM] | in vitro activity against SARS-CoV-2 (SARS-CoV-2) | decrease in infection rate (VSV*ΔG(Luc)-S virus) | infection rate (VSV*ΔG(Luc)-S virus) [%]
CN1CCN(c2ccc(C(=O)Nc3n[nH]c4ccc(Cc5cc(F)cc(F)c5)cc34)c(NC3CCOCC3)c2)CC1 [entrectinib] | without inducing significant cell death | dose-dependent inhibition of virus infection | partially inhibit; also recorded: demonstrated an antiviral effect | < 1 | – | – | –
Cc1ccc(NC(=O)c2ccc(CN3CCN(C)CC3)cc2)cc1Nc1nccc(-c2cccnc2)n1 [imatinib] | – | – | – | – | do not show antiviral efficacy | – | –
Cc1cccc(/C=N/Nc2cc(N3CCOCC3)nc(OCCc3ccccn3)n2)c1 [apilimod] | – | dose-dependent inhibition of virus infection | partially inhibit | – | – | lower decrease in infection rate | 50
Cc1cn(-c2cc(NC(=O)c3ccc(C)c(Nc4nccc(-c5cccnc5)n4)c3)cc(C(F)(F)F)c2)cn1 [nilotinib] | – | dose-dependent inhibition of virus infection | partially inhibit | > 15 | did show in vitro antiviral effect | – | –
